Measurements as given in patent publication US20130289471A1, “GAS BASED WOUND AND TISSUE THERAPEUTICS” (Virginia Commonwealth University, priority 2008, published 2013).

Assays:
[1] = Lipophilicity of the preferred PFC (statement); type: physicochemical
Source text: Being that the PFCs are slightly lipophilic at body temperature and would help in the transport of oxygen into and removal of carbon dioxide from the skin tissue, PFCs can accelerate the healing process of a wound in a tissue.

[2] = Physical properties of F-tert-butylcyclohexane; type: physicochemical; set-up: Kinematic Viscosity: unit not given here
Source text: Oxycyte® is based on the perfluorocarbon F-tert-butylcyclohexane, a saturated alicyctic PFC (molecular formula C10F20) and can be used as a PFC composition in the methods and uses described herein. Physical properties of F-tert-butylcyclohexane are as follows: […]

- lipophilicity ([1]; at body temperature): only slightly lipophilic
- lipophilicity ([1]; at room temperature): not lipophilic
- Density [2]: 1.97 g/mL
- Kinematic Viscosity [2]: 5.378
- Vapor Pressure @ 25° C. ([2]; 25° C.): 3.8 mmHg
- Vapor Pressure @ 37° C. ([2]; 37° C.): 4.4 mmHg
Compound: FC(F)(F)C(C(F)(F)F)(C(F)(F)F)C1(F)C(F)(F)C(F)(F)C(F)(F)C(F)(F)C1(F)F [F-tert-butylcyclohexane, perfluoro-tert-butylcyclohexane]
